From patent US8029818B2, “Method of blunting the postprandial glycemic response to a meal” (Abbott Laboratories, priority 2001, dated 2011)

Columns and labels:
[1] = test system: healthy nondiabetic adult subjects; assay: 2-hour meal tolerance test (50 g carbohydrate from instant mashed potatoes ±10 g fructose), postprandial glycemic response; format: in vivo, human; details: for Incremental AUC / Incremental peak glucose / Time to peak: Mean ± SEM; for Glycemic index: incremental AUC for treatment/control (no supplemental fructose) × 100
Text: (§1) The primary objective of this study was to determine the effects of the timing of fructose ingestion on the postprandial glycemic response of healthy nondiabetic adult subjects to instant mashed potatoes, a rapidly digested starch. A secondary objective was to evaluate the effects of an acute challenge of 50 g of carbohydrate from instant mashed potatoes ±10 g fructose on subjective gastrointestinal tolerance.
The study followed a double-blind crossover design in which subjects participated in four 2-hour meal tolerance tests on separate occasions. Subjects were randomly assigned to one of 24 treatment sequences. After an overnight fast, subjects consumed 50 g carbohydrate from instant mashed potatoes with or without 10 g supplemental fructose. The effects of the timing of fructose ingestion were evaluated by having the subjects consume 10 g fructose 60, 30, or 0 min before the instant mashed potato meal. A control meal tolerance test was given where subjects received no fructose.
To ensure that subjects had similar glycogen stores on the 4 test days, subjects were instructed to consume a high carbohydrate diet (minimum 150 g carbohydrate per day) for 3 days before each meal tolerance test and were also asked to avoid exercise 24 hours before the experiment. On the evening before each meal tolerance test, all subjects consumed a low-residue dinner consisting of one 8 fl oz (237 ml) can of chocolate Ensure Plus® (Ross Laboratories, Columbus, Ohio) with additional Honey Graham Crunch Ensure® Bars (Ross Laboratories, Columbus, Ohio) to provide one-third of each subject's individual daily caloric requirement as estimated by the Harris-Benedict equation multiplied by an activity factor of 1.3. Subjects were instructed to fast overnight, following their low-residue evening meal, during which they were only allowed to consume water and smoking was prohibited. On the morning of each meal tolerance test, body weight, body temperature, pulse rate and blood pressure were measured by standard procedures. A fasting finger-prick capillary blood sample was obtained and analyzed utilizing two methods of glucose determination. One sample was immediately analyzed for glucose with an Accu-Chek Blood Glucose Monitoring System (Roche Diagnostics, Indianapolis, Ind.). An additional sample was collected into a capillary tube containing EDTA for whole blood glucose analysis (within 30 min of collection) using a YSI analyzer (model YSI 2300 STAT PLUS, Yellow Springs Instruments, Yellow Springs, Ohio). This fasting sample was considered the −60 min time point. According to randomization, subjects then consumed 10 g fructose at −60 min, −30, or 0 min or no supplemental fructose (30 ml water at −60 min). The test meal (50 g carbohydrate from instant mashed potatoes) was given at time 0 and consumed within 10 min. Additional finger-prick capillary blood was obtained at −30, 0, 15, 30, 45, 60, 90 and 120 min postprandial. Subjects were allowed 8 fl oz water (240 ml) during each 2-hour test. Immediately following each trial, body temperature, pulse rate and blood pressure were measured. Subjects returned within 7 days for repeat analysis with the appropriate crossover treatment.
The products tested were instant mashed potatoes (Hungry Jack Mashed Potatoes; Pillsbury Company) and purified crystalline fructose (Wild Oats Market grocery; Columbus, Ohio).
The primary variable for this study was incremental peak plasma glucose response. Secondary variables included incremental area under the curve, time to peak glucose, glycemic index, and subjective gastrointestinal tolerance factors. Exploratory variables included absolute and incremental plasma glucose response at −30, 0, 15, 30, 45, 60, 90, and 120 min postprandial.
A total of 31 healthy nondiabetic (fasting plasma glucose value less than 110 mg/dl; American Diabetes Association, 1997) volunteers (thirteen men and eighteen women) were recruited. […]

[2] = test system: healthy nondiabetic adult subjects; assay: Subjective gastrointestinal tolerance questionnaire, 24-h period after the test material; format: in vivo, human; details: for Intensity of Cramping / Intensity of Distention / Intensity of Flatulence / Intensity of Nausea: 100-mm line scale score (0 Absent, 100 Severe); for Intensity of Cramping / Intensity of Distention / Intensity of Flatulence / Intensity of Nausea / Frequency of Cramping / Frequency of Distention / Frequency of Flatulence / Frequency of Nausea: Mean ± SEM, n=31; for Frequency of Cramping / Frequency of Distention / Frequency of Flatulence / Frequency of Nausea: 100-mm line scale score (0 Usual, 100 More than usual)
Text: as §1
Using a questionnaire, subjects were asked to report the frequency and intensity of the following symptoms: nausea, cramping, distention, and flatulence for the 24-h period immediately following consumption of the test material. Intensity and frequency was set to a 100-mm line scale (0 representing “Absent” and 100 “Severe” and 0 representing “Usual” and 100 “More than usual,” respectively). Subjects placed a single perpendicular slash mark across the 100 mm horizontal line to indicate their scores for each of these variables of frequency and intensity. A score of 5 or less was considered not physiologically meaningful.

rats = details: fructose intake levels greater than 17% of total Kcal; cited from earlier work
humans = details: fructose intake levels greater than 17% of total Kcal; cited from earlier work
[3] = 10 g fructose 60 or 30 min before the meal tolerance test vs fructose with the meal or no supplemental fructose, P<0.05
[4] = Accu-Chek values, 10 g fructose at 0 min (with test meal), n=31
[5] = Accu-Chek values, 10 g fructose at −30 min relative to test meal, n=31
[6] = Accu-Chek values, 10 g fructose at −60 min relative to test meal, n=31
[7] = YSI values (whole blood), 10 g fructose at 0 min (with test meal), n=28
[8] = YSI values (whole blood), 10 g fructose at −30 min relative to test meal, n=25
[9] = YSI values (whole blood), 10 g fructose at −60 min relative to test meal, n=26

O=C(CO)[C@@H](O)[C@H](O)[C@H](O)CO [fructose]
Peak incremental change from baseline for plasma glucose [1, 3]: lower
incremental area under the curve for plasma glucose [1, 3]: lower
incremental change from baseline in plasma glucose at the 0 min time point ([1]; 10 g fructose at −30 min compared to the 0-min time fructose ingestion treatment, P<0.05): increased
incremental change from baseline in plasma glucose at the −30 min time point ([1]; 10 g fructose at −60 min compared to the other treatments, P<0.05): increased
postprandial glycemic response ([1]; 10 g fructose given 30 or 60 min before the meal tolerance test): reduced the postprandial glycemic response
postprandial glycemic response ([1]; 10 g supplemental fructose given with the meal glucose tolerance test, compared to the control): had no effect
Incremental AUC [1, 4]: 3059 ± 246 mg·min/dL
Incremental peak glucose [1, 4]: 65.7 ± 3.2 mg/dL
Time to peak [1, 4]: 38 ± 1.9 min
Glycemic index ([1]; Accu-Chek values, 10 g fructose at 0 min, n=31): 98.8 ± 6.2
Glycemic index ([1]; Accu-Chek values, 10 g fructose at −30 min, n=31): 80.2 ± 8.5
Incremental AUC [1, 5]: 2329 ± 210 mg·min/dL
Incremental peak glucose [1, 5]: 49.5 ± 2.5 mg/dL
Time to peak [1, 5]: 36 ± 2.0 min
Glycemic index ([1]; Accu-Chek values, 10 g fructose at −60 min, n=31): 84.1 ± 6.6
Incremental AUC [1, 6]: 2398 ± 142 mg·min/dL
Incremental peak glucose [1, 6]: 51.6 ± 2.2 mg/dL
Time to peak [1, 6]: 35 ± 1.3 min
Incremental AUC [1, 7]: 2592 ± 213 mg·min/dL
Incremental peak glucose [1, 7]: 56.7 ± 3.0 mg/dL
Time to peak [1, 7]: 37 ± 1.8 min
Incremental AUC [1, 8]: 1880 ± 189 mg·min/dL
Incremental peak glucose [1, 8]: 39.9 ± 2.6 mg/dL
Time to peak [1, 8]: 33 ± 1.5 min
Incremental AUC [1, 9]: 2094 ± 132 mg·min/dL
Incremental peak glucose [1, 9]: 44.4 ± 2.0 mg/dL
Time to peak [1, 9]: 33 ± 1.2 min
Glycemic index ([1]; YSI values, 10 g fructose at 0 min, n=28): 107.1 ± 11.1
Glycemic index ([1]; YSI values, 10 g fructose at −30 min, n=25): 82.5 ± 10.6
Glycemic index ([1]; YSI values, 10 g fructose at −60 min, n=26): 89.6 ± 7.5
Time to peak glucose ([1]; between treatments (fructose at −60, −30, 0 min or none), P>0.05): did not differ
postprandial incremental change from baseline in plasma glucose at 90 and 120 min ([1]; between treatments, P>0.05): did not differ
incremental change from baseline in plasma glucose at 15 min ([1]; fructose at −30 min compared to the control and 0-min time fructose ingestion treatment, P<0.05): higher
incremental change from baseline in plasma glucose over the 30, 45 and 60 min time points ([1]; fructose −60 or −30 min relative to the meal tolerance test): tended to be lower
Intensity of Cramping ([2]; 10 g fructose at 0 min): 3 ± 1.9
Intensity of Distention ([2]; 10 g fructose at 0 min): 1 ± 0.4
Intensity of Flatulence ([2]; 10 g fructose at 0 min): 1 ± 0.5
Intensity of Nausea ([2]; 10 g fructose at 0 min): 0 ± 0.2
Intensity of Cramping ([2]; 10 g fructose at −30 min): 2 ± 1.6
Intensity of Distention ([2]; 10 g fructose at −30 min): 3 ± 1.5
Intensity of Flatulence ([2]; 10 g fructose at −30 min): 5 ± 1.7
Intensity of Nausea ([2]; 10 g fructose at −30 min): 1 ± 0.4
Intensity of Cramping ([2]; 10 g fructose at −60 min): 1 ± 0.3
Intensity of Distention ([2]; 10 g fructose at −60 min): 1 ± 1.0
Intensity of Flatulence ([2]; 10 g fructose at −60 min): 3 ± 1.5
Intensity of Nausea ([2]; 10 g fructose at −60 min): 1 ± 0.3
Frequency of Cramping ([2]; 10 g fructose at 0 min): 7 ± 4.1
Frequency of Distention ([2]; 10 g fructose at 0 min): 1 ± 0.6
Frequency of Flatulence ([2]; 10 g fructose at 0 min): 3 ± 1.3
Frequency of Nausea ([2]; 10 g fructose at 0 min): 1 ± 0.2
Frequency of Cramping ([2]; 10 g fructose at −30 min): 1 ± 0.2
Frequency of Distention ([2]; 10 g fructose at −30 min): 4 ± 1.9
Frequency of Flatulence ([2]; 10 g fructose at −30 min): 7 ± 2.9
Frequency of Nausea ([2]; 10 g fructose at −30 min): 1 ± 0.2
Frequency of Cramping ([2]; 10 g fructose at −60 min): 4 ± 3.2
Frequency of Distention ([2]; 10 g fructose at −60 min): 1 ± 0.3
Frequency of Flatulence ([2]; 10 g fructose at −60 min): 3 ± 1.7
Frequency of Nausea ([2]; 10 g fructose at −60 min): 1 ± 0.3
gastrointestinal symptoms (intensity and frequency of nausea, cramping, distention and flatulence) ([2]; all treatments: 50 g carbohydrate from instant mashed potatoes with or without 10 g supplemental fructose): Minimal effects
effect on blood lipids (rats): cause hypertriacylglycerolemia and hypercholesterolemia
effect on blood lipids (humans): cause hypertriacylglycerolemia and hypercholesterolemia
